Test results from patent US7544693B2 (priority 2003, dated 2009).
pKd: −log10 of the molar value.

Target: α7 nAChR subtype (Rattus norvegicus, UniProt Q05941)
Assay type: binding
Details: read-out: KD of radioligand (saturation curves, one site model)

Chain of α7 nAChR subtype (Q05941 23-502 limits assumed): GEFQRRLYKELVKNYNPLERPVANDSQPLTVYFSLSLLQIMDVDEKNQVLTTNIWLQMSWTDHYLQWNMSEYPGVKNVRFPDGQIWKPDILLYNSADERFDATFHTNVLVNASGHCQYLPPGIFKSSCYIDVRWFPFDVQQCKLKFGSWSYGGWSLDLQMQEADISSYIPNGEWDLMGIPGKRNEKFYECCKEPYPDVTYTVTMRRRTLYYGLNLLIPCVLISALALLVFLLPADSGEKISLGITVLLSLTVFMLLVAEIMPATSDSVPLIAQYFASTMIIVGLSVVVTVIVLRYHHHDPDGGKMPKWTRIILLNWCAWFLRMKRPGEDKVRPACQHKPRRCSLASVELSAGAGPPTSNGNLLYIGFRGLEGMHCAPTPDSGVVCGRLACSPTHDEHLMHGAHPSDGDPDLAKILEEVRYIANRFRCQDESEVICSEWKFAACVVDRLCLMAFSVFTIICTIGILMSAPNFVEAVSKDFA

How did the pKd turn out when [^125I]-α-Bungarotoxin [[^125I]-α-BTX] was run?
Its pKd is 8.78.
